{"source": "patent US10689415B2", "about": "“Conjugates of RGD peptides and (bacterio)chlorophyll photosensitizers” (YEDA RESEARCH AND DEVELOPMENT COMPANY LTD., priority 2006, dated 2020)", "key": {"[1]": {"system": "H5V endothelial cells", "test": "Phototoxicity assay (Neutral Red cell viability after illumination)", "assay_type": "cell-based, mouse", "procedure": "The light source for in vitro studies was home-built 100-W halogen lamp equipped with a high-pass filter (>650 nm, Safelight filter 1A Eastman Kodak Co., Rochester, N.Y., USA) and a 4-cm water filter. The lamp was used to illuminate (20 mW/cm^2/10 min (12 J/cm^2)) the culture plates from the bottom at room temperature in a dark room.\nTo determine the pigment photodynamic efficacy in vitro under standard conditions, cells were cultured in 96-well plates and preincubated for 15 or 90 min at 37° C. or 4° C., according to the indicated experiment protocol, with 0-25 μM conjugated or non-conjugated photosensitizer in different media conditions (culture medium DMEM/F12; 10% FCS in medium or 10 μM BSA in medium) in the absence or presence of excess free peptide (100 fold up to 1 mM). The cells were washed and illuminated (20 mW/cm^2 for 10 min). Plates were placed back in the culture incubator for 24 h. Cell survival was determined using Neutral Red cell viability assay. Cell survival was calculated as the percent of the dye accumulated in the untreated controls. […] Three kinds of controls were used: (i) light control: cells illuminated in the absence of pigments; (ii) dark control: cells treated with pigments but kept in the dark; and (iii) untreated cells that were kept in the dark.\nFollowing photosensitization and a 24-h incubation period (37° C.), cell survival was determined by Neutral Red (Fluka Chemie, Buchs, Switzerland) accumulation. After subtraction of assay blanks, net optical density (570 nm) was computed as the average value of triplicates determinations. Cell survival was calculated as the percent of the dye accumulated in the untreated controls.\nH5V cells were incubated for 90 min at 37° C. with 0-25 μM of conjugate 23 or compound 10 in different media conditions, illuminated and their survival was determined using Neutral Red viability assay as described in Materials and Methods.\nTargeted phototoxicity is defined as one inhibited by the free ligand. Thus, further experiments attempted to block phototoxicity by administration of the free cycloRGDfK, which competes for the cellular binding of conjugate 23. H5V cells were incubated for 90 min at 37° C. with 0-25 μM of compound 10 or conjugate 23 in different media (10% FCS in medium or 10 μM BSA in medium) in the absence or presence of free excess cycloRGDfK (100-fold up to 1 mM). The cells were illuminated and cell survival was determined using Neutral Red viability assay, as described above.\nIn order to test the endocytosis theory and since the endocytic process is time- and temperature-dependent, H5V cells were incubated at 37° C. and 4° C. for 15 min with 0-20 μM of conjugate 23 in medium containing 10% FCS, in the presence or absence of excess cycloRGDfK (100-fold up to 1 mM). Cells were illuminated and their survival was determined as described above.\nThe phototoxicity of conjugate 24 was determined by monitoring the survival of cultured H5V endothelial cells following PDT. H5V cells were incubated for 2 hours at 37° C. with 0-25 μM conjugate 24 in culture medium DMEM/F12 with 10% FCS. The cells were illuminated and their survival was determined as described above.\nCells were incubated for 90 min at 37° C. in the presence of 0-20 μM conjugate 11 or compound 8 in 10 μM BSA in medium, illuminated and their survival was determined as described above."}, "[2]": {"test": "Solubilization for in vitro experiments (water solubility)", "assay_type": "physicochemical", "experimental": "Compound 24 was dissolved in 100% DMSO before use and diluted in saline to a final DMSO concentration of 5% v/v."}, "[3]": {"system": "MDA-MB-231 breast tumor", "test": "Biodistribution (Cu by ICP-MS) in mice bearing MDA-MB-231 breast tumor", "assay_type": "in vivo, female CD-1 nude mice", "experimental": "The biodistribution of Cu-conjugate 15 was determined in female CD-1 nude mice of 6-8 weeks-old, weighing 20-23 g and bearing 6-9-mm^3 tumors of human adenocarcinoma cells obtained from breast tissue (MDA-MB-231 cells). The conjugate (30 mg/ml in 5% DMSO/PBS) was injected to the tail vein, and the animals were sacrificed in selected time points. Cu concentrations were determined by ICP-MS as described in Material and Methods."}, "[4]": {"system": "MLS ovarian carcinoma", "test": "Fluorescence imaging, MLS ovarian carcinoma", "assay_type": "in vivo, mice", "details": "8 mg/kg i.v.", "experimental": "Conjugate 26 (8 mg/kg) was i.v. injected into animals bearing MLS ovarian carcinoma. Images on IVIS were taken after 8 and 14 hours."}, "[5]": {"system": "CT26luc colon cancer", "test": "In vivo PDT (VTP) of CT26luc colon cancer", "set-up": "species or system CD-1 nude male mice", "details": "i.v. injected and illuminated after 8 hours", "experimental": "CD-1 nude male mice bearing the different tumor xenografts were anesthetized and 24 (5-24 mg/kg body weight) or 8 (9 mg/kg body weight) were i.v. injected via the tail vein. The tumors were trans-cutaneously illuminated after 3.5, 6, 8, 12 and 24 hours for 5-30 min at light doses of 30-360 J/cm^2. Intensity of illumination: 100-200 mW/cm^2. After treatment, the mice were returned to the cage. The mice were considered cured if tumor free for 90 days after treatment. Mice were euthanized when the tumor diameter reached 15 mm. […] (5) Mixture of 8 and cycloRGDfK: the mice were i.v. injected with mixture of 8 with cycloRGDfK and illuminated after indicated time point. (6) cycloRGDfK alone: the mice were i.v. injected with cycloRGDfK and illuminated after indicated time point. Images were taken at indicated time post PDT.\nFIGS. 32A-32F show the therapeutic results of applying 15 mg/kg, 10 min illumination (60 J/cm^2), 8 hours post injection of conjugate 24 to mice bearing CT26luc tumors (bolded protocol in Table 5). 32A—conjugate 24 was i.v. injected 15 mg/kg, 10 min illumination (60 J/cm^2) 8 hours post injection; 32B—overlaid images taken after i.p. injection of luciferin to the mouse described in 32A, using the IVIS system. The first image is black and white, which gives the photograph of the animal. The second image is color overlay of the emitted photon data. […]"}, "[6]": {"system": "large MDA-MB-231-RFP tumors", "test": "Biodistribution and pharmacokinetics (fluorescence of tissue extracts) in MDA-MB-231-RFP tumor-bearing mice", "assay_type": "in vivo, CD-1 nude female mice", "experimental": "Mammary fat pads (left, bottom nipple) of female mice were inoculated with harvested MDA-MB-231-RFP human breast cancer cells (4×10^6 in […] saline). Tumors were classified as ‘small’ (˜100 mm^3) at one to two weeks from time of cell injection, or ‘large’ after three to four weeks (necrotic tumors, 250 to 500 mm^3). To avoid tumor burden, mice were sacrificed (cervical dislocation) when tumor size reached 10% of body weight or at 90 days post-implantation. External caliper measurements, length (L), width (W) and depth (D) were used to calculate in vivo tumor volume according to the formula: V=L/2·W/2·D/2·π·4/3.\nAnesthetized mice were i.v. injected (tail vein) with the different photosensitizer (pigment) conjugates (control group: untreated). The mice were sacrificed at indicated time points and samples of the indicated organs and tissues (blood, tumor, intestine, liver, spleen, kidneys, testies, heart, lung, brain, skin, muscle and fat) were placed in pre-weighted vials and immediately frozen and stored at −20° in the dark until analyzed. Three methods were used for sample preparation: (1) Each sample was thawed and homogenized in DDW (1:10 w/v). Aliquots of the homogenate (500 μl) were lyophilized in Eppendorf test tubes. Then, 60 μl of HNO3 (70%, TraceSelect, Fluka) were added to each dry sample, incubated for 1 h at 90° C. and diluted with DDW to 3 ml. (2) Each sample was diluted (1:2 w/v) in HNO3 (70%, TraceSelect, Fluka). The samples were sonicated for 30 min in boiled water, and left for at least 48 h at room temperature. (3) Applied for assessment of non-metalated conjugates. Each sample was thawed and homogenized in methanol (100 mg tissue/ml) and extracted the next morning by centrifugation (13,000×g, five minutes) at room temperature. In methods (1) and (2), 140 μl from each sample was added to 3.36 ml DDW to give total volume of 3.5 ml and incubated for 1 h at 90° C. Pd concentrations were determined by ICP-MS. According to method (3), the supernatants were diluted in methanol by a factor of two and the drug concentration was determined by fluorescence measurements (Varian-Cary Eclipse spectrofluorimeter, Palo Alto, Calif., USA) at 750 nm (peak values). Drug concentrations were interpolated from a fluorescence calibration curve, based on predetermined drug concentrations using absorption spectroscopy."}, "[7]": {"system": "orthotopic human breast MDA-MB-231-RFP primary tumor", "test": "Whole-body NIR fluorescence imaging of accumulation in orthotopic MDA-MB-231-RFP tumor", "assay_type": "in vivo, CD-1 nude female mice", "details": "for accumulation in the tumor (NIR fluorescence): 15 mg/kg i.v.", "experimental": "RFP fluorescence, in units of photons/sec, was detected using 525/50 nm and 612/75 nm filter sets for excitation and emission, respectively, with one second integration time. NIR fluorescence of the different photosensitizers, in units of photons/sec, was detected using 680/30 nm and 847/75 nm filter sets for excitation and emission, respectively, at an integration time of five seconds. Background fluorescence for all quantitative analyses was calculated by recording the average fluorescence (photons/sec)/cm^2 from three animals in three different areas around and within the tumor of untreated animals provided with a similar diet for three days before measurements. Drug accumulation was determined following i.v. administration of molar equivalents of the photosensitizer to the tail vein of mice fed with a chlorophyll-free, purified diet for three days before administration (in order to reduce skin and food autofluorescence). Before imaging, mice were anesthetized by intraperitoneum injection of a 30 μl mixture of 85:15 ketamine:xylazine.\nIn order to study the accumulation of the photosensitizer in primary mammary tumors, the MDA-MB-231-RFP cells (4×10^6) were implanted orthotopicaly in the mammary pad of the mice. Tumors developed to the wanted size, bigger than 1 cm^3, within 3-4 weeks.\nTumor imaging main filter set comprised: excitation filter 500-550 nm, emission filter 575-650 nm; Background filter set for subtraction the tissue auto fluorescence: excitation filter 460-490 nm, emission filter 575-650 nm. Photosensitizer imaging main filter set: excitation filter 665-695 nm, emission filter 810-875 nm.\nImages were taken at these time points post drug injection: 15 min, 1, 2, 3, 4.5, 6, 7.5, 9, 24 hr, 2, 3, 4, 5, 6, 7 days."}, "[8]": {"system": "human mammary cancer MDA-MB-231-RFP xenografts", "test": "In vivo PDT of MDA-MB-231-RFP xenografts", "set-up": "species or system CD-1 nude male mice", "details": "7.5 mg/kg i.v.", "experimental": "For the PDT experiments, MDA-MB-231 RFP cells (4×10^6) were implanted subcutaneously on the backs of the mice and tumors developed to the treatment size (6-8 mm) within 2-3 weeks.\nThe tumors were illuminated for 10 min. The drug light interval used was 8 hr post drug injection. Transdermal illumination through the mouse skin with 755 nm diode laser at 100 mW/cm^2 (CeramOptec, Germany) was used. After the treatment, the mice were returned to the cage. […] In the light control group, the mice were illuminated for 10 min with 100 mW/cm^2. During the first 2 days post PDT, as needed, the mice received analgesia (2.5 mg/kg Flunexin daily) and 3 days Oxycode in the drinking water. The end point of animal survival is when the size of the tumor reaches 10% of animal weight. Mice are sacrificed at this time (up to 90 days) by cervical dislocation.\nFIGS. 35A-35B show two representative examples to local response of human MDA-MB-231-RFP to PDT. […] 35A—Photographs taken from day 0 (before treatment) and after treatment at 1, 4, 7, 12 and 90 days. […] 35B—In vivo whole-body red fluorescence imaging of CD-1 nude male mice bearing MDA-MB-231-RFP orthotopic tumor."}}}
{"molecule": "Palladium 3-oxo-15-methoxycarbonylmethyl-Rhodobacteriochlorin-13^1-(2,3-dihydroxypropyl)amide potassium salt [Compound 10]", "values": [{"measurement": "LD50", "setting": "[1]; 10 μM BSA in medium (90 min, 37° C.)", "result": "3.5 to 5", "unit": "µM"}, {"measurement": "LD50", "setting": "[1]; 10 μM BSA in medium (90 min, 37° C.), with free peptide in excess (cycloRGDfK)", "result": 5, "unit": "µM"}, {"measurement": "LD50", "setting": "[1]; 10% FCS (90 min, 37° C.)", "result": "5 to 7", "unit": "µM"}, {"measurement": "LD50", "setting": "[1]; 10% FCS (90 min, 37° C.), with free peptide in excess (cycloRGDfK)", "result": 5, "unit": "µM"}, {"measurement": "influence of excess cycloRGDfK on phototoxic effects", "setting": "[1]; 90 min, 37° C., 100-fold up to 1 mM", "result": "not influenced by the presence of excess cycloRGDfK"}, {"measurement": "LD50", "setting": "[1]; culture medium (90 min, 37° C.)", "result": 7, "unit": "µM"}, {"measurement": "phototoxic effects", "setting": "[1]; different media, 90 min, 37° C., 0-25 μM", "result": "light- and drug concentration-dependent"}, {"measurement": "water solubility", "setting": "[2]", "result": "Water insoluble"}]}
{"molecule": "Copper(II) 3^1-oxo-15-methoxycarbonylmethyl-Rhodobacteriochlorin 13^1-(2-sulfoethyl)amide-17^3-(cycloRGDfK)amide potassium salt [Conjugate 15]", "values": [{"measurement": "tumor intensity in comparison with surrounding normal tissue", "setting": "[3]; at peak", "result": "about 3 fold"}, {"measurement": "time of peak accumulation in tumor after injection", "setting": "[3]; i.v. tail vein", "result": "8 to 12", "unit": "h"}]}
{"molecule": "3^1-oxo-15-methoxycarbonylmethyl-Rhodobacteriochlorin 13^1-(2-sulfoethyl)amide-17^3-(GRGDSP)amide potassium salt [Conjugate 26]", "values": [{"measurement": "accumulation (fluorescence)", "setting": "[4]; 8 hours", "result": "did not present accumulation"}, {"measurement": "accumulation (fluorescence)", "setting": "[4]; 14 hours", "result": "a high level of fluorescence was observed in tumor and liver areas"}]}
{"molecule": "N=C(N)NCCC[C@@H]1NC(=O)[C@H](CCCCN)NC(=O)[C@@H](Cc2ccccc2)NC(=O)[C@H](CC(=O)O)NC(=O)CNC1=O", "note": "[cycloRGDfK]", "values": [{"measurement": "water solubility", "setting": "[2]", "result": "Water insoluble"}, {"measurement": "PDT effect of controls", "setting": "[5]", "result": "no PDT effect"}]}
{"molecule": "3^1-oxo-15-methoxycarbonylmethyl-Rhodobacteriochlorin 13^1-(2-sulfoethyl)amide potassium salt [Compound 25, reference compound]", "values": [{"measurement": "accumulation in the tumor (tissue extracts)", "setting": "[6]; 9 mg/kg i.v.", "result": "no accumulation of 25 in the tumor at any time longer than one hour post administration"}, {"measurement": "specific tumor fluorescence", "setting": "[7]; 9 mg/kg i.v., large necrotic tumors, one hour post injection", "result": "No specific tumor fluorescence"}]}
{"molecule": "3^1-oxo-15-methoxycarbonylmethyl-Rhodobacteriochlorin 13^1-(2-sulfoethyl)amide-17^3-(cycloRGDfK)amide potassium salt [Conjugate 13]", "values": [{"measurement": "whole-body red fluorescence (tumor) signal after PDT", "setting": "[8]; 90 days after treatment", "result": "No signal was detected 90 days after treatment"}, {"measurement": "local tumor response to PDT", "setting": "[8]; illuminated 8 h later, 755 nm, 100 mW/cm^2, 10 min", "result": "after 90 days the wound healed and the animal was cured"}, {"measurement": "peak concentration in the tumors", "setting": "[6]; 15 mg/kg i.v.", "result": 11, "unit": "μg drug/gr tumor tissue"}, {"measurement": "peak tumor level as share of the initial drug dose", "setting": "[6]; 15 mg/kg i.v.", "result": "about 3.0%"}, {"measurement": "time of peak concentrations in the tumors", "setting": "[6]; 15 mg/kg i.v.", "result": "eight hours post-injection"}, {"measurement": "time to clear to nearly background levels in normal tissues", "setting": "[6]; 15 mg/kg i.v.", "result": "less than 72 hours"}, {"measurement": "time of peak levels in the normal tissues examined", "setting": "[6]; 15 mg/kg i.v., blood, liver, kidney", "result": "less than five minutes post-injection"}, {"measurement": "accumulation in the tumor (NIR fluorescence)", "setting": "[7]; 15 min to 24 hr post injection, tumor size ~1 cm^3, potassium salt", "result": "no specific accumulation in the tumor during the first 24 hours"}, {"measurement": "accumulation in the tumor (NIR fluorescence)", "setting": "[7]; day 1 to 6 post injection", "result": "reaching peak concentration specifically in the tumor from day 2 post injection"}]}
